Laboratory results taken from patent publication US12091652B2, “Ammonia-oxidizing Nitrosomonas eutropha strain D23” (priority 2014, dated 2024).
Like-named read-outs stand apart in the source and are kept apart here.

Test system: Nitrosomonas eutropha D23
Assay: Antibiotic susceptibility (MIC) of N. eutropha D23 cultures in vitro
Assay type: cell-based
Conditions: for MIC Interpretive Criteria (phenotype of N. eutropha D23): CLSI criteria, MIC levels of the outcome stand in parentheses in the cell; for MIC: 30° C., 48-72 hr, OD600, two-fold dilution series
Protocol: The activities of five antibiotics, each representing a different antibiotic class, were tested against Nitrosomonas eutropha D23. The antibiotics tested included clindamycin, erythromycin, gentamicin, piperacillin with or without the β-lactamase inhibitor Tazobactam, and tetracycline. These were chosen based on the Clinical and Laboratory Standards Institute (CLSI) recommendations for routine testing and reporting of phylogenetically-related proteobacteria (Pseudomonas aeruginosa) listed under Non-fastidious organisms and Non-Enterobacteriaceae in the CLSI 24th Informational Supplement (M100-S24), and also included topical or systemic antimicrobial agents commonly used against acne, such as clindamycin or tetracycline. Studies with clindamycin were included even though this antibiotic was not expected to be very effective at inhibiting Nitrosomonas, as is the case for other aerobic Gram-negative bacteria.
Minimal Inhibitory Concentrations (MICs) were determined by culturing N. eutropha D23 in decreasing concentrations of each of the five antibiotics. Bacterial growth at 30° C. was monitored for 48-72 hr by determining optical density (OD600) values in samples collected at 24 hr intervals. MIC values were identified as the lowest antibiotic concentration from a two-fold dilution series leading to no increase in OD600 measurements for the 2 or 3-day incubation period. The N. eutropha D23 phenotype in each antibiotic test was determined as Susceptible, Intermediate, or Resistant according to the MIC Interpretive Criteria provided by the CLSI. […] Clindamycin resistance observed for N. eutropha D23 is in agreement with previous reports for natural resistance of aerobic Gram-negative bacteria to this antibiotic. In addition to testing the β-lactam antibiotic piperacillin alone, the broad range β-lactamase inhibitor Tazobactam was also tested in combination with piperacillin to assess the possible expression of β-lactamase(s) by N. eutropha D23.

[1] = Nitrosomonas eutropha, D23, read-out: MIC

Molecule | MIC Interpretive Criteria (phenotype of N. eutropha D23) | MIC [1] [µg/mL] | other results
CC[C@H]1OC(=O)[C@H](C)[C@@H](O[C@H]2C[C@@](C)(OC)[C@@H](O)[C@H](C)O2)[C@H](C)[C@@H](O[C@@H]2O[C@H](C)C[C@H](N(C)C)[C@H]2O)[C@](C)(O)C[C@@H](C)C(=O)[C@H](C)[C@@H](O)[C@]1(C)O [Erythromycin] | Susceptible (≤0.5 μg/ml) | 0.16 | MIC Interpretive Criteria (phenotype of N. eutropha D23) (listed as erythromycin): susceptibility
Gentamicin | Susceptible (≤4 μg/ml) | – | MIC: 0.25 µg/mL; MIC Interpretive Criteria (phenotype of N. eutropha D23) (listed as gentamicin): susceptibility
CCC[C@@H]1C[C@@H](C(=O)N[C@@H]([C@H]2O[C@H](SC)[C@H](O)[C@@H](O)[C@H]2O)[C@H](C)Cl)N(C)C1 [Clindamycin] | – | > 16 | –
Piperacillin/Tazobactam | Intermediate | – | MIC: 64/4
CN(C)[C@@H]1C(O)=C(C(N)=O)C(=O)[C@@]2(O)C(O)=C3C(=O)c4c(O)cccc4[C@@](C)(O)[C@H]3C[C@@H]12 [Tetracycline] | – | 8 | –
CCN1CCN(C(=O)N[C@@H](C(=O)N[C@@H]2C(=O)N3[C@@H]2SC(C)(C)[C@@H]3C(=O)O)c2ccccc2)C(=O)C1=O [Piperacillin] | Intermediate (32-64 μg/ml) | 64 | MIC Interpretive Criteria (phenotype of N. eutropha D23) (listed as piperacillin): intermediate resistance
C[C@]1(Cn2ccnn2)[C@H](C(=O)O)N2C(=O)C[C@H]2S1(=O)=O [Tazobactam] | – | – | effect of adding the β-lactamase inhibitor to piperacillin on N. eutropha D23 susceptibility (in combination with piperacillin): no increase in N. eutropha D23 susceptibility
